Key:
[1] = target: T1, Kappa-type opioid receptor (Homo sapiens, UniProt P41145); assay: Inhibition of kappa opioid receptor (unknown origin) assessed as increase in beta arrestin 2 recruitment
[2] = target: T1, Kappa-type opioid receptor; assay: Inhibition of kappa opioid receptor (unknown origin) assessed as increase in beta arrestin 2 recruitment relative to control
[3] = target: T1, Kappa-type opioid receptor; assay: Inhibition of kappa opioid receptor (unknown origin) by [35S]-GTPgammaS binding assay; type: functional
[4] = target: T1, Kappa-type opioid receptor; assay: Inhibition of kappa opioid receptor (unknown origin) assessed as effect on ERK1 phosphorylation
[5] = target: T1, Kappa-type opioid receptor; assay: Inhibition of kappa opioid receptor (unknown origin) assessed as effect on ERK2 phosphorylation
[6] = target: T1, Kappa-type opioid receptor; assay: Inhibition of kappa opioid receptor (unknown origin) assessed as effect on ERK1 phosphorylation relative to control
[7] = target: T1, Kappa-type opioid receptor; assay: Inhibition of kappa opioid receptor (unknown origin) assessed as effect on ERK2 phosphorylation relative to control

T1 sequence (P41145 whole entry): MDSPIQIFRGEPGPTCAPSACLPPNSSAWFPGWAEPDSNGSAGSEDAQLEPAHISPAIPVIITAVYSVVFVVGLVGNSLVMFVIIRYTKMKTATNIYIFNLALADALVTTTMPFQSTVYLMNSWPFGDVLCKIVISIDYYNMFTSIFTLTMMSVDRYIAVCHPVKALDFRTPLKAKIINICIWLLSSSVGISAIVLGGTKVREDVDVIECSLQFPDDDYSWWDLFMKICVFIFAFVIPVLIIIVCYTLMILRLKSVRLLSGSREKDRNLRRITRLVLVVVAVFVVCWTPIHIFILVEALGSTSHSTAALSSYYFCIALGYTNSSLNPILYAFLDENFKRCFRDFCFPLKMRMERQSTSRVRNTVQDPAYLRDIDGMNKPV

Q: Which results are given for Ic1ccc(CSc2nnc(-c3ccccn3)n2Cc2ccccn2)cc1?
A: EC50 [1]: 10100 nM; Emax [2]: 101%; EC50 [3]: 75.5 nM; EC50 [4]: 107 nM; EC50 [5]: 107 nM; Emax [6]: 109%; Emax [7]: 109%
